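A five-concentration, 48-hour dose response in 96-well plates underlies each endpoint, interpolated linearly between surrounding concentrations. Abbreviation: GI50, concentration required for 50% inhibition of growth.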 Calls of active or inactive are those of the source. Cut-off read from the data, not from the text of the source: active = GI50 up to about 1.1 µM and inactive = higher.
Legend:
Assay in all cases: DTP human tumour cell line panel, 48 h
NCI-H226 = system: NCI-H226
OVCAR-4 = system: OVCAR-4
OVCAR-5 = system: OVCAR-5
MDA-MB-231 = system: MDA-MB-231
DU-145 = system: DU-145
HT-29 = system: HT-29
SNB-19 = system: SNB-19
OVCAR-3 = system: OVCAR-3
SK-MEL-2 = system: SK-MEL-2
NCI/ADR-RES = system: NCI/ADR-RES
SW-620 = system: SW-620
IGROV-1 = system: IGROV-1
UO-31 = system: UO-31
SN12C = system: SN12C
SF-268 = system: SF-268
T47D = system: T47D
OVCAR-8 = system: OVCAR-8
SK-MEL-28 = system: SK-MEL-28
HCC 2998 = system: HCC 2998
HOP-62 = system: HOP-62

Measured: GI50

Cc1cc(O)cc2c1c(=O)c1ccccc1n2C
inactive: NCI-H226 49.1 µM | OVCAR-4 80.2 µM | OVCAR-5 > 100 µM | MDA-MB-231 > 100 µM | DU-145 > 100 µM | HT-29 > 100 µM | SNB-19 34.8 µM | OVCAR-3 > 100 µM | SK-MEL-2 > 100 µM | NCI/ADR-RES 68.1 µM | SW-620 > 100 µM | IGROV-1 > 100 µM | UO-31 > 100 µM | SN12C > 100 µM | SF-268 31.7 µM | T47D 73.5 µM | OVCAR-8 31.7 µM

CCOC(=O)N[C@H]1CCc2cc(OC)c(OC)c(OC)c2-c2ccc(SC)c(=O)cc21
inactive: OVCAR-4 16 µM | T47D > 54.6 µM
active: NCI-H226 0.163 µM | SK-MEL-28 0.746 µM | HCC 2998 < 0.01 µM | OVCAR-5 0.317 µM | DU-145 < 0.01 µM | HT-29 < 0.01 µM | SNB-19 0.108 µM | OVCAR-3 < 0.01 µM | SK-MEL-2 < 0.01 µM | NCI/ADR-RES 0.0228 µM | SW-620 < 0.01 µM | IGROV-1 < 0.01 µM | UO-31 < 0.0117 µM | SN12C < 0.0287 µM | HOP-62 < 0.01 µM | SF-268 < 0.01 µM | OVCAR-8 < 0.01 µM

O=C(Nc1ccccc1)Nn1c(-c2cccs2)nc2ccc(I)cc2c1=O
inactive: NCI-H226 28.8 µM | SK-MEL-28 20.5 µM | HCC 2998 25.8 µM | OVCAR-4 16.9 µM | OVCAR-5 27.7 µM | DU-145 24.3 µM | HT-29 25.9 µM | SNB-19 42.2 µM | OVCAR-3 11 µM | NCI/ADR-RES 30.6 µM | SW-620 39.4 µM | IGROV-1 19.7 µM | UO-31 21.2 µM | SN12C 34.8 µM | HOP-62 51.4 µM | SF-268 30.4 µM | T47D 3.33 µM | OVCAR-8 33.3 µM

O=C1C[C@@H](Sc2ccccc2)C2(OCCO2)C2ON3CCCC[C@H]3[C@H]12 (stereo partly drawn)
inactive: NCI-H226 13.8 µM | SK-MEL-28 19.4 µM | OVCAR-4 7.73 µM | OVCAR-5 17.7 µM | MDA-MB-231 12.6 µM | DU-145 12.1 µM | HT-29 4.75 µM | SNB-19 10.5 µM | OVCAR-3 13 µM | SK-MEL-2 18.1 µM | NCI/ADR-RES 5.78 µM | SW-620 3.63 µM | IGROV-1 5.48 µM | UO-31 3.75 µM | SN12C 3.82 µM | HOP-62 16.5 µM | SF-268 7.55 µM | T47D 16.2 µM | OVCAR-8 3.87 µM

COc1cc(C2OC(N)=C(C#N)C3=C2C(C)CCC3)cc(OC)c1OC (stereo not drawn)
inactive: NCI-H226 68.7 µM | SK-MEL-28 > 100 µM | OVCAR-5 > 100 µM | MDA-MB-231 30.3 µM | DU-145 95.9 µM | HT-29 > 100 µM | SNB-19 72.3 µM | OVCAR-3 > 100 µM | SK-MEL-2 71.8 µM | NCI/ADR-RES > 100 µM | SW-620 > 100 µM | IGROV-1 47.1 µM | UO-31 > 100 µM | SN12C > 100 µM | HOP-62 12.7 µM | SF-268 > 100 µM | T47D 2.03 µM | OVCAR-8 63 µM

COC(=O)CSC(=S)Nc1nnc(NC(=S)SCOC(C)=O)n1C(=S)SCC(=O)OC
inactive: SK-MEL-28 > 100 µM | HCC 2998 > 100 µM | OVCAR-4 > 100 µM | OVCAR-5 > 100 µM | DU-145 > 100 µM | HT-29 > 100 µM | SNB-19 > 100 µM | OVCAR-3 > 100 µM | NCI/ADR-RES > 100 µM | SW-620 > 100 µM | IGROV-1 > 100 µM | UO-31 > 100 µM | SN12C > 100 µM | HOP-62 6.97 µM | SF-268 > 100 µM

NC(CCC(=O)O)(CCC(=O)O)CCC(=O)O
inactive: NCI-H226 > 100 µM | OVCAR-5 > 100 µM | MDA-MB-231 > 100 µM | DU-145 > 100 µM | HT-29 > 100 µM | SNB-19 > 100 µM | SK-MEL-2 > 100 µM | NCI/ADR-RES > 100 µM | SW-620 > 100 µM | IGROV-1 > 100 µM | UO-31 > 100 µM | SN12C > 100 µM | SF-268 > 100 µM | T47D > 100 µM | OVCAR-8 > 100 µM

O=C(Nc1ccccc1)Oc1ccc(C(=S)Nc2ccc(Br)cc2)cc1
inactive: SK-MEL-28 19.4 µM | HCC 2998 21.6 µM | OVCAR-4 14.3 µM | OVCAR-5 16.6 µM | DU-145 31.5 µM | HT-29 16.8 µM | OVCAR-3 18.9 µM | SK-MEL-2 18.3 µM | NCI/ADR-RES 15.3 µM | SW-620 24.5 µM | IGROV-1 6.43 µM | HOP-62 28.6 µM | SF-268 16.4 µM | T47D 22.2 µM | OVCAR-8 12.6 µM

OC(c1ccc(F)cc1)C(F)(F)c1nc(-c2ccccc2)no1 (stereo not drawn)
inactive: SK-MEL-28 21.1 µM | OVCAR-4 20.7 µM | OVCAR-5 18.1 µM | MDA-MB-231 2.43 µM | DU-145 21.2 µM | HT-29 17.6 µM | SNB-19 36.4 µM | OVCAR-3 16.4 µM | SK-MEL-2 18.9 µM | NCI/ADR-RES 30.6 µM | SW-620 19.3 µM | IGROV-1 > 100 µM | UO-31 19 µM | SN12C 21.6 µM | SF-268 25.3 µM | T47D 23.7 µM | OVCAR-8 > 100 µM

COC(=O)/C=C1/SC(/C(=C(/[O-])OC)[n+]2ccc3ccccc3c2)=NC1=O
inactive: NCI-H226 > 100 µM | SK-MEL-28 > 100 µM | OVCAR-5 > 100 µM | MDA-MB-231 21.9 µM | DU-145 > 100 µM | HT-29 > 100 µM | SNB-19 > 100 µM | SK-MEL-2 > 100 µM | NCI/ADR-RES > 100 µM | SW-620 > 100 µM | IGROV-1 > 100 µM | UO-31 > 100 µM | SN12C > 100 µM | HOP-62 > 100 µM | SF-268 > 100 µM | T47D > 100 µM | OVCAR-8 > 100 µM

Nc1ccc(Cc2ccc(N)c(C(=O)O)c2)cc1C(=O)O
inactive: NCI-H226 > 100 µM | SK-MEL-28 > 100 µM | HCC 2998 > 100 µM | OVCAR-4 > 100 µM | OVCAR-5 > 100 µM | MDA-MB-231 > 100 µM | HT-29 > 100 µM | SNB-19 > 100 µM | OVCAR-3 > 100 µM | SK-MEL-2 > 100 µM | NCI/ADR-RES > 100 µM | SW-620 > 100 µM | IGROV-1 > 100 µM | UO-31 > 100 µM | SN12C > 100 µM | HOP-62 > 100 µM | SF-268 > 100 µM | T47D > 100 µM | OVCAR-8 > 100 µM

CC(C)(C)OC[C@H](O)CC#N
inactive: NCI-H226 > 100 µM | SK-MEL-28 > 100 µM | HCC 2998 > 100 µM | OVCAR-4 > 100 µM | OVCAR-5 > 100 µM | MDA-MB-231 > 100 µM | DU-145 > 100 µM | HT-29 > 100 µM | SNB-19 > 100 µM | OVCAR-3 > 100 µM | SK-MEL-2 > 100 µM | SW-620 > 100 µM | UO-31 > 100 µM | SN12C > 100 µM | HOP-62 > 100 µM | SF-268 > 100 µM | T47D > 100 µM | OVCAR-8 > 100 µM

COC(=O)[C@H](Cc1ccccc1)NC(=O)N1CCN(C(=O)N[C@@H](Cc2ccccc2)C(=O)OC)CCN(C(=O)N[C@@H](Cc2ccccc2)C(=O)OC)CC1
inactive: NCI-H226 > 100 µM | SK-MEL-28 > 100 µM | HCC 2998 > 100 µM | OVCAR-4 > 100 µM | OVCAR-5 > 100 µM | DU-145 > 100 µM | HT-29 > 100 µM | SNB-19 > 100 µM | OVCAR-3 > 100 µM | SK-MEL-2 > 100 µM | NCI/ADR-RES > 100 µM | SW-620 > 100 µM | IGROV-1 > 100 µM | UO-31 > 100 µM | SN12C > 100 µM | HOP-62 > 100 µM | SF-268 > 100 µM | T47D > 100 µM | OVCAR-8 > 100 µM

Cc1cc(C)c(-n2c(C)c(C)c(C#N)c2N)c(C)c1
inactive: NCI-H226 25 µM | SK-MEL-28 37.1 µM | OVCAR-4 29 µM | OVCAR-5 > 100 µM | MDA-MB-231 33.6 µM | DU-145 38.1 µM | HT-29 30.5 µM | SNB-19 87.7 µM | OVCAR-3 24.2 µM | SK-MEL-2 19.5 µM | NCI/ADR-RES 32.3 µM | SW-620 26.5 µM | IGROV-1 37 µM | UO-31 83.2 µM | SN12C 27.2 µM | HOP-62 35.8 µM | SF-268 38.6 µM | T47D 26.3 µM | OVCAR-8 34.6 µM

Cc1c(/N=N/c2ccc(Cl)cc2)c(-c2ccccc2)n(C2OC(CO)C(O)C(O)C2O)c(=S)c1C#N (stereo not drawn)
inactive: SK-MEL-28 15.4 µM | OVCAR-4 17.2 µM | OVCAR-5 19.2 µM | MDA-MB-231 20.3 µM | DU-145 19 µM | HT-29 16.6 µM | SNB-19 12.3 µM | OVCAR-3 18.5 µM | SK-MEL-2 18.8 µM | NCI/ADR-RES 13.6 µM | SW-620 17.6 µM | IGROV-1 15.1 µM | UO-31 19.8 µM | SN12C 16.6 µM | HOP-62 19.1 µM | SF-268 22.2 µM | T47D 19.1 µM

CCc1n[nH]c(=O)[nH]1
inactive: HCC 2998 > 100 µM | OVCAR-5 > 100 µM | MDA-MB-231 > 100 µM | DU-145 > 100 µM | HT-29 > 100 µM | SNB-19 > 100 µM | OVCAR-3 > 100 µM | SK-MEL-2 > 100 µM | NCI/ADR-RES > 100 µM | IGROV-1 > 100 µM | UO-31 > 100 µM | SN12C > 100 µM | HOP-62 > 100 µM | SF-268 > 100 µM | T47D > 100 µM | OVCAR-8 > 100 µM

— ChEMBL document CHEMBL1201862, “PubChem BioAssay data set” (2004)
